According to patent publication US7589212B2, “Human protein tyrosine phosphatase inhibitors and methods of use” (Procter & Gamble Company, priority 2006, dated 2009):

How the values were obtained:
HPTPβ = HPTPβ (Homo sapiens, UniProt P23467); assay: HPTPβ inhibition (IC50); assay type: biochemical
PTP1B = biological target: T1, PTP1B (Homo sapiens, UniProt P18031); assay: PTP1B inhibition (IC50); assay type: biochemical
T1 sequence (P18031 1-435): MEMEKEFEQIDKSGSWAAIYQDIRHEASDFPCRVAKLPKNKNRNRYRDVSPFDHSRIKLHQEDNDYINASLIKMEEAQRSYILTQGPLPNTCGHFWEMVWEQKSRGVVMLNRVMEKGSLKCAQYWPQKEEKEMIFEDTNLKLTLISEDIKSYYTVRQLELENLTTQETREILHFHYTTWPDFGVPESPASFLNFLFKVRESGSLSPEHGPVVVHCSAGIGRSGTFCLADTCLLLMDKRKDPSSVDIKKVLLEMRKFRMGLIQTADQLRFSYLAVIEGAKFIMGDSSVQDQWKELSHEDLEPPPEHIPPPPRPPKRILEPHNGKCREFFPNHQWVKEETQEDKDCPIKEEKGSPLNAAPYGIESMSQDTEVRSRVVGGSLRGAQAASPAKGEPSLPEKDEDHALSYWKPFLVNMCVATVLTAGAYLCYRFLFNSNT

HPTPβ, sequence (P23467 23-1997): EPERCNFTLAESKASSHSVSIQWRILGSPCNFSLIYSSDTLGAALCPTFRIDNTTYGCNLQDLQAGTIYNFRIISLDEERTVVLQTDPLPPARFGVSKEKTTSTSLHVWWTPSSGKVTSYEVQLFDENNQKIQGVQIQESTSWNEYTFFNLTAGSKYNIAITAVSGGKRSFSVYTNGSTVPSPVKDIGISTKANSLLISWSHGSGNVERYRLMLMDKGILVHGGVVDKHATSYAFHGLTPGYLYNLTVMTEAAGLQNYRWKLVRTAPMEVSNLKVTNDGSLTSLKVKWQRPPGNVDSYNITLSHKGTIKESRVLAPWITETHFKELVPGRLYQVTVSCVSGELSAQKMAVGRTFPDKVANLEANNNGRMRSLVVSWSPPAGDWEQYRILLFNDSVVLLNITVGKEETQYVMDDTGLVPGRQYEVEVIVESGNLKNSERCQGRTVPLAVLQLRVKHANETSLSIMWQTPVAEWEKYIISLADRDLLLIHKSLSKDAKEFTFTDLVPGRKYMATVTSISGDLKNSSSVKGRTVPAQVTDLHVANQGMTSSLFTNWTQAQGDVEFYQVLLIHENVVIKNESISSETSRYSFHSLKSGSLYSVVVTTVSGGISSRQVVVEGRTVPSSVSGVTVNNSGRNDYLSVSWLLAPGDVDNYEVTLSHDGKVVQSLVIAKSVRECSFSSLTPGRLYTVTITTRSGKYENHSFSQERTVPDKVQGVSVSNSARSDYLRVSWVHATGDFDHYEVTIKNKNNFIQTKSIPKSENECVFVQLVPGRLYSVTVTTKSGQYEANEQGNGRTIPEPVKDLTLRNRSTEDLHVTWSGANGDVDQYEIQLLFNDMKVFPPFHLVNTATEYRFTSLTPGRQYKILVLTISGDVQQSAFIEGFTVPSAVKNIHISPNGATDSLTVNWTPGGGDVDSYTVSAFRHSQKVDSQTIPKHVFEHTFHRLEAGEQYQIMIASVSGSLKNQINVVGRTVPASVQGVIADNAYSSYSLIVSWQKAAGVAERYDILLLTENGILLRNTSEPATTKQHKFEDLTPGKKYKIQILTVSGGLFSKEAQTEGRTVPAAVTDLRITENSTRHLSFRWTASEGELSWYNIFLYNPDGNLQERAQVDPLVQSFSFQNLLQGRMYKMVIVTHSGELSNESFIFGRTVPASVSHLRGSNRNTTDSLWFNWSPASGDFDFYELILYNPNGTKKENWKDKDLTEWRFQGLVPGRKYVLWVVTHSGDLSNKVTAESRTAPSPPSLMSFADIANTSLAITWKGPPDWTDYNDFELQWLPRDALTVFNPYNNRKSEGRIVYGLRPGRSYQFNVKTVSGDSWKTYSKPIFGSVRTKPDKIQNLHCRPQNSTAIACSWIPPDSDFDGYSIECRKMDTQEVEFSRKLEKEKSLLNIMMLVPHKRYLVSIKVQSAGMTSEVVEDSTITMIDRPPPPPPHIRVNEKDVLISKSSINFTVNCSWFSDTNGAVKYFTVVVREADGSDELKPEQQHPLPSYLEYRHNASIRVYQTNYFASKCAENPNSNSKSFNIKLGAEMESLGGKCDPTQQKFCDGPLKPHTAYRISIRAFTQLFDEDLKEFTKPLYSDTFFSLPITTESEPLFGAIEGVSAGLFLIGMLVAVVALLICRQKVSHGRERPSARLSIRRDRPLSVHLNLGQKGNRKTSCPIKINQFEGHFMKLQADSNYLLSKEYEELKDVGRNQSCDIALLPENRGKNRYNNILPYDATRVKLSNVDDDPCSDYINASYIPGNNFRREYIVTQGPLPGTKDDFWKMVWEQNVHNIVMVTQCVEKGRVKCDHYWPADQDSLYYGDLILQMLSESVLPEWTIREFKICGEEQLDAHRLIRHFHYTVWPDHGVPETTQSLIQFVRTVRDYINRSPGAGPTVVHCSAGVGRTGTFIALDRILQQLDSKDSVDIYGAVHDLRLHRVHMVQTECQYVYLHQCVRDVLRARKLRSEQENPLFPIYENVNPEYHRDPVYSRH

Compound | IC50 (HPTPβ) [nM] | IC50 (PTP1B) [nM]
Cc1nc(Cc2nnc(N[C@@H](Cc3ccc(NS(=O)(=O)O)cc3)c3csc(-c4cccs4)n3)s2)cs1 [4-((S)-2-(5-((2-Methylthiazol-4-yl)methyl)-1,3,4-thiadiazol-2-ylamino)-2-(2-(thiophen-2-yl)thiazol-4-yl)ethyl)phenylsulfamic acid] | 0.009 | 580
COC(=O)Cc1nnc(N[C@@H](Cc2ccc(NS(=O)(=O)O)cc2)c2csc(-c3cccs3)n2)s1 [4-((S)-2-(5-((Methoxycarbonyl)methyl)-1,3,4-thiadiazol-2-ylamino)-2-(2-(thiophen-2-yl)thiazol-4-yl)ethyl)phenylsulfamic acid] | 2 | 1550
O=S(=O)(O)Nc1ccc(C[C@H](Nc2nnc(Cc3ccccc3)s2)c2csc(-c3cccs3)n2)cc1 [4-((S)-2-(5-Benzyl-1,3,4-thiadiazol-2-ylamino)-2-(2-(thiophen-2-yl)thiazol-4-yl)ethyl)phenylsulfamic acid] | 0.6 | 3860
CCCc1nnc(N[C@@H](Cc2ccc(NS(=O)(=O)O)cc2)c2csc(-c3cccs3)n2)s1 [4-((S)-2-(5-Propyl-1,3,4-thiadiazol-2-ylamino)-2-(2-(thiophen-2-yl)thiazol-4-yl)ethyl)phenylsulfamic acid] | 0.2 | 4710
O=S(=O)(O)Nc1ccc(C[C@H](Nc2nnc(-c3ccccc3)s2)c2csc(-c3ccccc3)n2)cc1 [(S)-4-(2-(5-Phenyl-1,3,4-thiadiazol-2-ylamino)-2-(2-phenylthiazol-4-yl)ethyl)-phenylsulfamic acid] | 46 | 3700
Cc1nnc(N[C@@H](Cc2ccc(NS(=O)(=O)O)cc2)c2csc(-c3ccccc3)n2)s1 [(S)-4-(2-(5-methyl-1,3,4-thiadiazol-2-ylamino)-2-(2-phenylthiazol-4-yl)ethyl)phenylsulfamic acid] | 3 | 1400
